Read-outs that look alike come from different tables or passages of the source.
Molecular target: T1, human orexin type 2 receptor (hOX2R) (Homo sapiens, UniProt O43614)
T1 construct: expressed in transfected cells
T1 sequence (O43614 1-444): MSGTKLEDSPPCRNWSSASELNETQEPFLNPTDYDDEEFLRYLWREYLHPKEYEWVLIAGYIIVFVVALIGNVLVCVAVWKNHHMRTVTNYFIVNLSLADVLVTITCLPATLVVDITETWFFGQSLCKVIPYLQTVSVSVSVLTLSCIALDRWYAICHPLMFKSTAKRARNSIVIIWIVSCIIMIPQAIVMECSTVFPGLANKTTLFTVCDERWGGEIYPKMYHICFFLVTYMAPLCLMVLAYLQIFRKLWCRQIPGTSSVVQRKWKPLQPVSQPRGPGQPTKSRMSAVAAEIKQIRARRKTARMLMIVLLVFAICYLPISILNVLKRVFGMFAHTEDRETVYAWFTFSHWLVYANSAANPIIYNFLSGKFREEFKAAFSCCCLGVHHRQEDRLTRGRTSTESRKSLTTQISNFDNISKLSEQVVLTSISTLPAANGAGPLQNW
Experiment: Measurement of orexin type 2 receptor agonist activity (FLIPR calcium fluorescence)
Format: cell-based
Conditions: for EC50: read-out: hOx2 pEC50 (converted); for Emax: CHO, read-out: hOx2 Emax (%)
Description: The biological activity of the compounds of the present disclosure may be determined in cells stably expressing either orexin type 2 or orexin type 1 receptor. […] The agonist activity of a compound of the present disclosure may be determined by fluorescence value.
Stable cell line generation.
Measurement of orexin type 2 receptor agonist activity. […] As used herein, E. indicates the value at 10 μM concentration when orexin A is converted to a full agonist (maximum value of agonist activity. 100%).

[1] = CHO cells expressing hOX2R, FLIPR calcium fluorescence

Row | Compound | EC50 [1] [nM] | Emax [1] [%] | Emax [%]
1 | C[C@@H](F)C(=O)N1CC2(CC2)[C@H](NS(=O)(=O)C(F)F)[C@@H]1Cc1cc(F)cc(-c2cc(F)cc(F)c2)c1F [Compound 406, 1,1-difluoro-N-((6S,7S)-5-((R)-2-fluoropropanoyl)-6-((2,3′,5,5′-tetrafluoro-[1,1′-biphenyl]-3-yl)methyl)-5-azaspiro[2.4]heptan-7-yl)methanesulfonamide] | 0.0794 to 1 | 90 to 100 | –
2 | O=C(NCC1(F)CC1)N1CC2(CC2)[C@H](NS(=O)(=O)C(F)F)[C@@H]1Cc1cc(F)cc(-c2cc(F)cc(F)c2)c1F [Compound 416, (6S,7S)-7-((difluoromethyl)sulfonamido)-N-((1-fluorocyclopropyl)methyl)-6-((2,3′,5,5′-tetrafluoro-[1,1′-biphenyl]-3-yl)methyl)-5-azaspiro[2.4]heptane-5-carboxamide] | 1 to 10 | 90 to 100 | –
3 | CS(=O)(=O)N[C@@H]1[C@H](Cc2cccc(-c3cc(F)cc(F)c3)c2F)N(C(=O)C2CCC2)CC12CC2 [Compound 33, N-((6S,7S)-5-(cyclobutanecarbonyl)-6-((2,3′,5′-trifluoro-[1,1′-biphenyl]-3-yl)methyl)-5-azaspiro[2.4]heptan-7-yl)methanesulfonamide] | 0.0794 to 1 | 90 to 100 | –
4 | COC(=O)N1CCC2(CC2)C(NS(C)(=O)=O)C1Cc1cccc(-c2ccccc2)c1 (racemic) [Compound 14, methyl 5-([1,1′-biphenyl]-3-ylmethyl)-4-(methylsulfonamido)-6-azaspiro[2.5]octane-6-carboxylate] | > 1000 | 90 to 100 | –
5 | [2H]C([2H])([2H])C([2H])([2H])NC(=O)N1CC2(CC2)[C@H](NS(C)(=O)=O)[C@@H]1Cc1cccc(-c2ccccc2)c1OC [Compound 363, (6S,7S)-N-(ethyl-d5)-6-((2-methoxy-[1,1′-biphenyl]-3-yl)methyl)-7-(methylsulfonamido)-5-azaspiro[2.4]heptane-5-carboxamide] | 10 to 100 | 70 to 80 | –
6 | CS(=O)(=O)N[C@@H]1[C@H](Cc2cccc(-c3ccccc3)c2F)N(C(=O)NC[C@@H]2CCOC2)CC12CC2 [Compound 329, (6S,7S)-6-((2-fluoro-[1,1′-biphenyl]-3-yl)methyl)-7-(methylsulfonamido)-N-(((S)-tetrahydrofuran-3-yl)methyl)-5-azaspiro[2.4]heptane-5-carboxamide] | 1 to 10 | 90 to 100 | –
7 | O=C([C@@H](O)C1CC1)N1CC2(CC2)[C@H](NS(=O)(=O)C(F)F)[C@@H]1Cc1cc(F)cc(-c2ccccc2)c1F [Compound 385] | 0.0794 to 1 | 90 to 100 | –
8 | CS(=O)(=O)N[C@@H]1[C@H](Cc2cccc(-c3ccccc3)c2F)N(C(=O)NCC(F)(F)F)CC12CC2 [Compound 99, (6S,7S)-6-((2-fluoro-[1,1′-biphenyl]-3-yl)methyl)-7-(methylsulfonamido)-N-(2,2,2-trifluoroethyl)-5-azaspiro[2.4]heptane-5-carboxamide] | 1 to 10 | – | 90 to 100
9 | CN(C)C(=O)N1CC2(CC2)[C@H](NS(C)(=O)=O)[C@@H]1Cc1cccc(-c2cc(F)cc(F)c2)c1 (racemic) [Compound 296, 6-((3′,5′-difluoro-[1,1′-biphenyl]-3-yl)methyl)-N,N-dimethyl-7-(methylsulfonamido)-5-azaspiro[2.4]heptane-5-carboxamide] | 10 to 100 | 90 to 100 | –
10 | CS(=O)(=O)N[C@@H]1[C@H](Cc2cccc(-c3ccccc3)c2)N(C(=O)[C@H]2C[C@@H](F)C2)CC12CC2 (racemic) [Compound 308, N-(-6-([1,1′-biphenyl]-3-ylmethyl)-5-((1s,3R)-3-fluorocyclobutane-1-carbonyl)-5-azaspiro[2.4]heptan-7-yl)methanesulfonamide] | 10 to 100 | 90 to 100 | –
11 | CCS(=O)(=O)NC1C(Cc2cccc(-c3ccccc3)c2)N(C(=O)OC)CC12CC2 (racemic) [Compound 6, methyl 6-([1,1′-biphenyl]-3-ylmethyl)-7-(ethylsulfonamido)-5-azaspiro[2.4]heptane-5-carboxylate] | 100 to 1000 | 70 to 80 | –
12 | O=C([C@H](O)CF)N1CC2(CC2)[C@H](NS(=O)(=O)CF)[C@@H]1Cc1cc(F)cc(-c2ccccc2)c1F [Compound 190, N-((6S,7S)-6-((2,5-difluoro-[1,1′-biphenyl]-3-yl)methyl)-5-((S)-3-fluoro-2-hydroxypropanoyl)-5-azaspiro[2.4]heptan-7-yl)-1-fluoromethanesulfonamide] | 1 to 10 | 90 to 100 | –
13 | O=C([C@H]1C[C@H](F)C1)N1CC2(CC2)[C@H](NS(=O)(=O)CF)[C@@H]1Cc1cccc(-c2ccccc2)c1F [Compound 188] | 1 to 10 | 90 to 100 | –
14 | O=C(NCC(F)(F)F)N1CC2(CC2)[C@H](NS(=O)(=O)CF)[C@@H]1Cc1cc(F)cc(-c2ccccc2)c1F [Compound 208, (6S,7S)-6-((2,5-difluoro-[1,1′-biphenyl]-3-yl)methyl)-7-((fluoromethyl)sulfonamido)-N-(2,2,2-trifluoroethyl)-5-azaspiro[2.4]heptane-5-carboxamide] | 0.0794 to 1 | 90 to 100 | –

Continued, in another order:

Row | EC50 [1] [nM] | Emax [1] [%] | Compound | Emax [%]
15 | 1 to 10 | 90 to 100 | C[C@H](CF)NC(=O)N1CC2(CC2)[C@H](NS(=O)(=O)C(F)F)[C@@H]1Cc1cccc(-c2ccccc2)c1F [Compound 212, (6S,7S)-7-((difluoromethyl)sulfonamido)-6-((2-fluoro-[1,1′-biphenyl]-3-yl)methyl)-N-((R)-I-fluoropropan-2-yl)-5-azaspiro[2.4]heptane-5-carboxamide] | –
16 | 1 to 10 | 90 to 100 | O=C([C@H](O)CF)N1CC2(CC2)[C@H](NS(=O)(=O)C(F)F)[C@@H]1Cc1cccc(-c2ccccc2)c1F [Compound 174, 1,1-difluoro-N-((6S,7S)-5-((S)-3-fluoro-2-hydroxypropanoyl)-6-((2-fluoro-[1,1′-biphenyl]-3-yl)methyl)-5-azaspiro[2.4]heptan-7-yl)methanesulfonamide] | –
17 | 0.0794 to 1 | 90 to 100 | CCNC(=O)N1CC2(CC2)C(NS(=O)(=O)CF)C1Cc1cccc(-c2ccccc2)c1F (racemic) [Compound 109, N-ethyl-6-((2-fluoro-[1,1′-biphenyl]-3-yl)methyl)-7-((fluoromethyl)sulfonamido)-5-azaspiro[2.4]heptane-5-carboxamide] | –
18 | 1 to 10 | 90 to 100 | CS(=O)(=O)N[C@@H]1[C@H](Cc2cccc(-c3ccccc3)c2F)N(C(=O)[C@H](O)C(F)(F)F)CC12CC2 [Compound 56, N-((6S,7S)-6-((2-fluoro-[1,1′-biphenyl]-3-yl)methyl)-5-((S)-3,3,3-trifluoro-2-hydroxypropanoyl)-5-azaspiro[2.4]heptan-7-yl)methanesulfonamide] | –
19 | 10 to 100 | 90 to 100 | CO[C@H](C)CNC(=O)N1CC2(CC2)[C@H](NS(C)(=O)=O)[C@@H]1Cc1cccc(-c2ccccc2)c1F [Compound 324, (6S,7S)-6-((2-fluoro-[1,1′-biphenyl]-3-yl)methyl)-N-((R)-2-methoxypropyl)-7-(methylsulfonamido)-5-azaspiro[2.4]heptane-5-carboxamide] | –
20 | 1 to 10 | 90 to 100 | COC[C@H](F)C(=O)N1CC2(CC2)[C@H](NS(=O)(=O)CF)[C@@H]1Cc1cccc(-c2ccccc2)c1F [Compound 224, 1-fluoro-N-((6S,7S)-5-((S)-2-fluoro-3-methoxypropanoyl)-6-((2-fluoro-[1,1′-biphenyl]-3-yl)methyl)-5-azaspiro[2.4]heptan-7-yl)methanesulfonamide] | –
21 | 1 to 10 | 90 to 100 | O=C(NCC(F)F)N1CC2(CC2)[C@H](NS(=O)(=O)C(F)F)[C@@H]1Cc1cccc(-c2ccccc2)c1F [Compound 165, (6S,7S)-N-(2,2-difluoroethyl)-7-((difluoromethyl)sulfonamido)-6-((2-fluoro-[1,1′-biphenyl]-3-yl)methyl)-5-azaspiro[2.4]heptane-5-carboxamide] | –
22 | 0.0794 to 1 | 90 to 100 | O=C(NCCF)N1CC2(CC2)[C@H](NS(=O)(=O)CF)[C@@H]1Cc1cccc(-c2ccccc2)c1F [Compound 367, (6S,7S)-6-((2-fluoro-[1,1′-biphenyl]-3-yl)methyl)-N-(2-fluoroethyl)-7-((fluoromethyl)sulfonamido)-5-azaspiro[2.4]heptane-5-carboxamide] | –
23 | 1 to 10 | 90 to 100 | C[C@H](F)C(=O)N1CC2(CC2)[C@H](NS(C)(=O)=O)[C@@H]1Cc1cccc(-c2ccccc2)c1F [Compound 346, N-((6S,7S)-6-((2-fluoro-[1,1′-biphenyl]-3-yl)methyl)-5-((S)-2-fluoropropanoyl)-5-azaspiro[2.4]heptan-7-yl)methanesulfonamide] | –
24 | 10 to 100 | 90 to 100 | COCCNC(=O)N1CC2(CC2)[C@H](NS(C)(=O)=O)[C@@H]1Cc1cccc(-c2ccccc2)c1F (racemic) [Compound 306, 6-((2-fluoro-[1,1′-biphenyl]-3-yl)methyl)-N-(2-methoxyethyl)-7-(methylsulfonamido)-5-azaspiro[2.4]heptane-5-carboxamide] | –

— US12503475B2 (Centessa Pharmaceuticals (UK) Limited, priority 2020, dated 2025)
